Test results taken from article PMC11031590, “Narazaciclib, a novel multi-kinase inhibitor with potent activity against CSF1R, FLT3 and CDK6, shows strong anti-AML activity in defined preclinical models” (Scientific Reports, 2024).
pIC50: −log10 of the molar value. Where “and” joins values, the source holds several entries; their conditions need not be identical. Identical values can stand only once. Like-named read-outs stand apart in the source and are kept apart here.

Columns and labels:
M2 primary macrophages = experiment: Primary macrophage proliferation assay; format: cell-based; conditions: Homo sapiens
Method: Human primary monocytes were isolated with an EasySep™ monocyte isolation kit (Stem Cell) from cryopreserved human PBMCs. […] Narazaciclib was serially diluted with culture medium to 9 final concentrations from 0.004 µM to 24 µM. The differentiated macrophages were incubated for 7 days at 37 °C followed by incubation with Cell Counting-Lite2.0 reagent (Vazyme) for 5 min on a shaker. Luminescence was recorded […]. The proliferation inhibition IC50 (half maximal inhibition concentration) of narazaciclib was determined by fitting the dose–response data to a four-parameter stimulation model.

AM7577 AML-PDX = experiment: AM7577 systemic AML-PDX model; format: in vivo, NOD/scid mice
Method: (§1) For systemic AML-PDX models, the model establishment and narazaciclib pharmacology experiment were performed essentially as described previously. Briefly, 2 × 10^6 AM7407 cells, or 2 × 10^6 AM7577 cells, or 2 × 10^6 AM5512 cells, or 1.65 × 10^6 AM8096 cells were inoculated intravenously into 4- to 5-week-old female NOD/scid mice for AML development. Engraftment was confirmed by the presence of circulating human CD45+ cells (anti-human CD45 antibody, Cat. 304038, Biolegend) in peripheral blood. Mice with successful engraftment of AML-PDX were randomized into different treatment groups (N = 6) and received their designated treatments. Narazaciclib was administrated orally or intraperitoneally at 10 mg/kg, or 30 mg/kg, or 100 mg/kg every day throughout the study, while Cytarabine was administrated intraperitoneally at 3 mg/kg every day. Following the initiation of designated treatments, leukemic burden was monitored by flow cytometry with anti-human CD45 antibody on the peripheral blood every week as well as on the peripheral blood, bone marrow cells and splenocytes of mice at sacrifice. Mice were sacrifice once the followings are observed: body weight loss over 20%, reduced motility and activity, labored breathing, ruffled coat, hunched back and severe dehydration.

Ba/F3-FLT3-ITD (D835F) = Ba/F3-FLT3-ITD (D835F) proliferation assay; format: cell-based, mouse
Method: (§2) The recombinant Ba/F3 cell lines overexpressing human CSF1R, or human RBM6-CSF1R, or human ETV6-CSF1R were generated using a retrovirus vector (Kyinno Co., Ltd. Beijing). The recombinant Ba/F3 lines overexpressing human Kras G12C orEGFR-L718Q mutants, and different mutant variants of FLT3 were also similarly created as well. A standard proliferation assay via CTG readout was performed according to the vendor’s instructions (KYinno Biotechnology Co., Ltd. Beijing).

Ba/F3-FLT3-ITD (F691L) = Ba/F3-FLT3-ITD (F691L) proliferation assay; format: cell-based, mouse
Method: as §2

[1] = Single-dose oral pharmacokinetics in non-tumor bearing mice; format: in vivo; conditions: female, NOD/scid; for CL/F: read-out: CL_F (converted)
Method: In order to understand the effective anti-AML exposure of narazaciclib in mice, we conducted a preliminary pharmacokinetic (PK) analysis of a single-dose oral administration of narazaciclib, at the same dose levels as in anti-AML pharmacology study above, in non-tumor bearing mice. Following a single oral administration of narazaciclib at either 30 mg/kg or 100 mg/kg in mice, plasma samples were collected at various timepoints. The plasma concentrations of narazaciclib were analyzed by LC–MS. […] In addition, narazaciclib undergoes relatively fast elimination from plasma with a T1/2 of 2.77 h for narazaciclib at 100 mg/kg or 1.92 h at 30 mg/kg.
Noncompartmental analyses (NCA) were performed using WinNonlinTM Phoenix, version XXX software (Pharsight, Cary, NC) to estimate the PK parameters including T1/2, elimination half-life; Tmax, Time to peak drug concentration; Cmax, maximum concentration; AUC0-∞, area under the plasma concentration–time curve from zero to infinity; AUC0-t, area under the plasma concentration–time curve from zero to the time of the last quantifiable time-point; CL_F, total body clearance; Vz-F, total volume of distribution. Following a single oral administration of narazaciclib at either 100 mg/kg or 30 mg/kg in female NOD/scid mice (N = 3), plasma samples were collected from 3 mice at each timepoint (pre-dose, 1h, 2h, 4h, 8h, 12h and24hpost administration) and analyzed by LC–MS.

[2] = system: Ba/F3-RBM6-CSF1R cell line; experiment: Ba/F3-RBM6-CSF1R proliferation assay (CTG); format: cell-based, mouse; conditions: Mus musculus; not requiring CSF1
Method: as §2

CSF1R = CSF1R (Homo sapiens, UniProt P07333); experiment: CSF1R kinase inhibition assay; format: biochemical; conditions: read-out: IC50 CSF1R enzymatic activity
Method: For CSF1R inhibition, TK-substrate-biotin and ATP were incubated at room temperature for 40 min, followed by adding different concentrations of […] and TK-antibody-Cryptate into each well of the assay plate and incubation at room temperature for 1 h. The fluorescence signal was read at 615 nm (Cryptate) and 665 nm (XL665) on an Envision 2104 plate reader.

Ba/F3-KRAS-G12C = Ba/F3-KRAS-G12C proliferation assay (CTG); format: cell-based; conditions: Mus musculus
Method: as §2

Ba/F3-FLT3-ITD (D835V) = Ba/F3-FLT3-ITD (D835V) proliferation assay; format: cell-based, mouse
Method: as §2

AM5512 AML-PDX = experiment: AM5512 systemic AML-PDX model; format: in vivo, NOD/scid mice; conditions: AM5512, 100 mg/kg orally every day
Method: as §1

Ba/F3-CSF1R cell line = experiment: Ba/F3-CSF1R proliferation assay (CTG); format: cell-based, mouse
Method: as §2

Ba/F3-FLT3-F691L = Ba/F3-FLT3-F691L proliferation assay; format: cell-based, mouse
Method: as §2

[3] = 30 mg/kg single oral, mouse plasma
[4] = 100 mg/kg single oral, mouse plasma

Sequence of CSF1R (P07333 20-972): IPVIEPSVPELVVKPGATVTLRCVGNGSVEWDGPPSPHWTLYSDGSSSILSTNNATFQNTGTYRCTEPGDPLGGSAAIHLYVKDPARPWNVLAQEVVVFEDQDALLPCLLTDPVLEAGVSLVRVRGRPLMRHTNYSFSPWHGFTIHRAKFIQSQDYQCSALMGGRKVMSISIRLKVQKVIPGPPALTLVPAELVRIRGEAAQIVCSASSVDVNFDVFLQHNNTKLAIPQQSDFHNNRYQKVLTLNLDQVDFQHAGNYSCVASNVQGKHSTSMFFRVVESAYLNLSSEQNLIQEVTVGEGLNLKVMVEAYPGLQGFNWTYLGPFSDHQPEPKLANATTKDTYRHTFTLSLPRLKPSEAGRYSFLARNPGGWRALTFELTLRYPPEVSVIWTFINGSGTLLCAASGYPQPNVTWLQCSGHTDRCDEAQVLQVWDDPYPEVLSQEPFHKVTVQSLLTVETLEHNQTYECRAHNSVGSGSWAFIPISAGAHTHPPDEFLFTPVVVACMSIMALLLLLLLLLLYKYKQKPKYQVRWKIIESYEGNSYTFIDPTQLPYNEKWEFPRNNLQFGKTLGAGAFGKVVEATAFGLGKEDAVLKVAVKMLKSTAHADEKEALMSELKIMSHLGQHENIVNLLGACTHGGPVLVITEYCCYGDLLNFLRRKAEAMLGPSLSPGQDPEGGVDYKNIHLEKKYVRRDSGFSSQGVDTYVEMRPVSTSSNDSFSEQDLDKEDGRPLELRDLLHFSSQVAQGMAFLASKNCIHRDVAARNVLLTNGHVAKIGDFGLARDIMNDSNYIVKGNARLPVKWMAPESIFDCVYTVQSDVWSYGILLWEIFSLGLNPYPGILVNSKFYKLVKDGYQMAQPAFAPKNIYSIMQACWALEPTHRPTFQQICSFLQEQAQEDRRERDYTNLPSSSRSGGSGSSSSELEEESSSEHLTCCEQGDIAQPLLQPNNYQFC

Structure (SMILES): CN1CCN(c2ccc(Nc3ncc4cc(C#N)c(=O)n(C5CCCC5)c4n3)cc2)CC1 [Narazaciclib, narazaciclib]
- pIC50 (M2 primary macrophages; M2-macrophages, read-out: IC50 M2-macrophage proliferation): 7.14
- pIC50 (M2 primary macrophages; M-CSF : GM-CSF Ratio 0:100, read-out: IC50 M2-Macrophages Growth Inhibition): 5.44
- pIC50 (M2 primary macrophages; M-CSF : GM-CSF Ratio 25:75, read-out: IC50 M2-Macrophages Growth Inhibition): 5.45
- pIC50 (M2 primary macrophages; M-CSF : GM-CSF Ratio 50:50, read-out: IC50 M2-Macrophages Growth Inhibition): 5.40
- pIC50 (M2 primary macrophages; M-CSF : GM-CSF Ratio 75:25, read-out: IC50 M2-Macrophages Growth Inhibition): 5.43
- leukemic load in peripheral blood (AM7577 AML-PDX; 100 mg/kg orally every day): completely diminished the leukemic load in peripheral blood
- leukemic load in peripheral blood, spleen and bone marrow (AM7577 AML-PDX; AM7577): reduce the leukemic load in peripheral blood and spleen, but also the leukemic load in bone marrow
- leukemic burdens in spleen and bone marrow (AM7577 AML-PDX; AM7577, 100 mg/kg): significantly reduced the leukemic burdens in both spleen and bone marrow
- leukemic burdens, dose dependence (AM7577 AML-PDX; AM7577, different dose levels): reduced the leukemic burdens in a dose-dependent manner
- % of Ba/F3-FLT3 (IC50) (Ba/F3-FLT3-ITD (D835F)): 23.10%
- pIC50 (Ba/F3-FLT3-ITD (D835F); Mus musculus): 7.16
- % of Ba/F3-FLT3 (IC50) (Ba/F3-FLT3-ITD (F691L)): 53.85%
- pIC50 (Ba/F3-FLT3-ITD (F691L); Mus musculus): 6.79
- AUC(0-inf) ([1]; mouse, plasma, oral, corresponding to 100 mg/kg dose level, read-out: efficacious exposure for anti-AML in mice in terms of AUC0~∞): < 8190 ng·h/mL
- Cmax ([1]; mouse, plasma, oral, corresponding to 100 mg/kg dose level, read-out: efficacious exposure for anti-AML in mice in terms of Cmax): < 1460 ng/mL
- AUC(0-t) [1, 3]: 1040 ng·h/mL
- Tmax [1, 3]: 1 h
- half-life [1, 3]: 115 min
- AUC(0-inf) ([1]; 30 mg/kg single oral, mouse plasma, read-out: AUC0-∞): 1200 ng·h/mL
- CL/F [1, 3]: 415 mL/min/kg
- Cmax ([1]; 30 mg/kg single oral, mouse plasma, read-out: Cmax): 469 ng/mL
- AUC(0-t) [1, 4]: 8190 ng·h/mL
- Tmax [1, 4]: 2 h
- half-life [1, 4]: 166 min
- AUC(0-inf) ([1]; 100 mg/kg single oral, mouse plasma, read-out: AUC0-∞): 8210 ng·h/mL
- CL/F [1, 4]: 203 mL/min/kg
- Cmax ([1]; 100 mg/kg single oral, mouse plasma, read-out: Cmax): 1460 ng/mL
- pIC50 [2]: 7.43
- pIC50 (CSF1R): ~9.55 and 9.54
- pIC50 (Ba/F3-KRAS-G12C): 6.31
- % of Ba/F3-FLT3 (IC50) (Ba/F3-FLT3-ITD (D835V)): 9.84%
- pIC50 (Ba/F3-FLT3-ITD (D835V); Mus musculus): 7.53
- response of model (AM5512 AML-PDX): did not respond
- times more potent than GW2580 (Ba/F3-CSF1R cell line; Ba/F3-CSF1R in the presence of CSF1): 16 times
- pIC50 (Ba/F3-CSF1R cell line; Mus musculus, + 100 ng/ml CSF-1): ~8.45
- % of Ba/F3-FLT3 (IC50) (Ba/F3-FLT3-F691L): 44.19%
- pIC50 (Ba/F3-FLT3-F691L; Mus musculus): 6.88
